# Values quoted from earlier work in paper PMC3045272 (Acta Crystallographica Section D: Biological Crystallography, 2011).
# System: Cn (calcineurin)
# Set-up: method as in Landrieu et al., 2010
# Settings: modification of the fourth residue; ref Landrieu et al., 2010
substance,measurement,value
Debio 025,binding of the compound–CypA complex to Cn,prevents binding of the Debio 025–CypA complex to Cn
